The values below come from patent publication US20020099206A1, “Cephalosporin crystals and process for their preparation” (priority 1997, published 2002).

SMILES strings stand for the structures.

This data set in a line: stability of Compound (1a) under crystallization conditions (Comparative Test Examples 1 and 2). The data set is classed as physicochemical. As for the experimental part:
Subsequently, stability of Compound (1a) under crystallization conditions was tested. The results are shown in the following Comparative Test Examples 1 and 2.
200 mg of oily 7-phenylacetamido-3-chloromethyl-cephem-4-carboxylic acid p-methoxybenzyl ester was dissolved in 0.2 ml of dimethylformamide. The solution was pored into 1 ml of methanol precooled to 3° C. to precipitate crystals. The mixture was stirred at 3 to 5° C. for 20 hours. Then, an ethyl acetate/water mixture was added to dissolve the crystals, and the solution was subjected to extraction. The organic layer was dried over sodium sulfate. The resulting solution was filtered, and the filtrate was concentrated under reduced pressure. The concentrate was purified by silica gel chromatography (Wako gel C-200, benzene/ethyl acetate=4/1), giving 197 mg of oily 7-phenylacetamido-3-chloromethyl-cephem-4-carboxylic-acid-p-methoxybenzyl ester (yield: 99%).
200 mg of oily 7-phenylacetamido-3-chloromethyl-cephem-4-carboxylic acid p-methoxybenzyl ester was dissolved in 0.2 ml of dimethylformamide. The solution was pored into 1 ml of methanol to precipitate crystals. The mixture was stirred at 30 to 35° C. for 20 hours. Then, an ethyl acetate/water mixture was added to dissolve the crystals, and the solution was subjected to extraction. The organic layer was dried over sodium sulfate. The resulting solution was filtered, and the filtrate was concentrated under reduced pressure.
For example, thin-layer chromatography of the obtained product (conditions: Merk Pre-Coated TLC Plates SILICA GEL 60F254 (Merk); benzene/ethyl acetate=4/1) developed color in zones corresponding to 7-phenylacetamide-3-chloromethyl-cephem-4-carboxylic acid p-methoxybenzyl ester (Compound (1a)) (Rf=0.46), 7-phenylacetamide-3-methoxymethyl-cephem-4-carboxylic acid p-methoxybenzyl ester (Compound A) (Rf=0.33) and decomposition product of Compound (1a) (Rf≈0, in the vicinity of the placing point). […]

Where [1] appears, read: dimethylformamide solution poured into uncooled methanol, stirred at 30 to 35° C. for 20 hours.

For `COc1ccc(COC(=O)C2=C(CCl)CS[C@@H]3C(NC(=O)Cc4ccccc4)C(=O)N23)cc1` (stereo partly drawn) [Compound (1a), 7-phenylacetamido-3-chloromethyl-cephem-4-carboxylic acid p-methoxybenzyl ester], for the setting “dimethylformamide solution poured into methanol precooled to 3° C., stirred at 3 to 5° C. for 20 hours”, the “7-phenylacetamido-3-chloromethyl-cephem-4-carboxylic acid p-methoxybenzyl ester recovered (yield)” value was determined as 99%. Under setting [1], the “Compound (1a) recovered (yield)” value was 71% and the “highly polar component Compound A formed (yield)” value is listed as 9%.
